Measured values: US7411083B2, “Substituted acetic acid derivatives” (Wyeth, priority 2003, dated 2008)

Molecular target: T1, recombinant human plasminogen activator inhibitor-1 (PAI-1) (Homo sapiens, UniProt P05121)
T1 construct: purchased Molecular Innovations, Royal Oak, Mich
Assay: Screening for PAI-1 inhibition (residual tPA activity, Spectrozyme-tPA chromogenic substrate)
Assay type: biochemical
Details: test compound at 100 Um; pH 6.6 buffer, 140 nM PAI-1, 70 nM tPA
In short: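 PAI-1 at 140 nM, pH 6.6 buffer, preincubated 1 h at room temperature with compound (1-100 μM final, ≤0.2% DMSO), then 70 nM tPA added for 30 min. Residual tPA activity read by Spectrozyme-tPA absorbance at 405 nm at 0 and 60 min. Inhibition taken as residual tPA activity.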

T1 sequence (P05121 24-402): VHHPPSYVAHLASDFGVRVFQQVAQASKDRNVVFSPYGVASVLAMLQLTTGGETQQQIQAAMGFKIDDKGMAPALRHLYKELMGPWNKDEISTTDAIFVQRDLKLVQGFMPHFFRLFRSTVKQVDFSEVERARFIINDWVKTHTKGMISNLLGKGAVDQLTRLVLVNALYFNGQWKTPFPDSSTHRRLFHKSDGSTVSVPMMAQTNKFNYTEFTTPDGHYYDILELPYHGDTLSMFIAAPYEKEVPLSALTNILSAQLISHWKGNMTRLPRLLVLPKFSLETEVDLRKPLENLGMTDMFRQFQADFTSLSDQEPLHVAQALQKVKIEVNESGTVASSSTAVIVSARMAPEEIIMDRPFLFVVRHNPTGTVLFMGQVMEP

Structure (SMILES)	inhibition at 100 µM [%]
O=C(O)CO/N=C/c1ccc(OCc2ccc(F)cc2)cc1OCc1ccc(F)cc1 [Compound 123, {[((1E)-{2,4-bis[(4-fluorobenzyl)oxy]phenyl}methylidene)amino]oxy}acetic acid]	72
O=C(O)CO/N=C/c1ccc(OCc2ccc(C(F)(F)F)cc2)cc1OCc1ccc(C(F)(F)F)cc1 [Compound 124, ({[(1E)-(2,4-bis{[4-(trifluoromethyl)benzyl]oxy}phenyl)methylidene]amino}oxy)acetic acid]	95
O=C(O)CO/N=C/c1ccc(OCc2ccc(Br)cc2)cc1OCc1ccc(Br)cc1 [Compound 125, {[((1E)-{2,4-bis[(4-bromobenzyl)oxy]phenyl}methylidene)amino]oxy}acetic acid]	90
CC(C)(C)c1ccc(COc2ccc(/C=N/OCC(=O)O)c(OCc3ccc(C(C)(C)C)cc3)c2)cc1 [Compound 126, {[((1E)-{2,4-bis[(4-tert-butylbenzyl)oxy]phenyl}methylidene)amino]oxy}acetic acid]	77
O=C(O)CO/N=C/c1ccc(OCc2cccc(Cl)c2)cc1OCc1cccc(Cl)c1 [Compound 127, {[((1E)-{2,4-bis[(3-chlorobenzyl)oxy]phenyl}methylidene)amino]oxy}acetic acid]	88
O=C(O)CO/N=C/c1ccc(OCc2cccc(Br)c2)cc1OCc1cccc(Br)c1 [Compound 128, {[((1E)-{2,4-bis[(3-bromobenzyl)oxy]phenyl}methylidene)amino]oxy}acetic acid]	91
Cc1cccc(COc2ccc(/C=N/OCC(=O)O)c(OCc3cccc(C)c3)c2)c1 [Compound 129, {[((1E)-{2,4-bis[(3-methylbenzyl)oxy]phenyl}methylidene)amino]oxy}acetic acid]	90
O=C(O)CO/N=C/c1ccc(OCc2cccc(C(F)(F)F)c2)cc1OCc1cccc(C(F)(F)F)c1 [Compound 130, ({[(1E)-(2,4-bis{[3-(trifluoromethyl)benzyl]oxy}phenyl)methylidene]amino}oxy)acetic acid]	91
O=C(O)CO/N=C/c1ccc(OCc2ccc(F)c(F)c2)cc1OCc1ccc(F)c(F)c1 [Compound 131, {[((1E)-{2,4-bis[(3,4-difluorobenzyl)oxy]phenyl}methylidene)amino]oxy}acetic acid]	88
O=C(O)CO/N=C/c1cccc(OCc2ccc(Br)cc2)c1OCc1ccc(Br)cc1 [Compound 132, {[((1E)-{2,3-bis[(4-bromobenzyl)oxy]phenyl}methylidene)amino]oxy}acetic acid]	65
O=C(O)CO/N=C/c1cccc(OCc2ccc(F)cc2)c1OCc1ccc(F)cc1 [Compound 133, {[((1E)-{2,3-bis[(4-fluorobenzyl)oxy]phenyl}methylidene)amino]oxy}acetic acid]	20
O=C(O)CO/N=C/c1cccc(OCc2ccc(C(F)(F)F)cc2)c1OCc1ccc(C(F)(F)F)cc1 [Compound 134, ({[(1E)-(2,3-bis{[4-(trifluoromethyl)benzyl]oxy}phenyl)methylidene]amino}oxy)acetic acid]	100
CC(C)(C)c1ccc(COc2cccc(/C=N/OCC(=O)O)c2OCc2ccc(C(C)(C)C)cc2)cc1 [Compound 135, {[((1E)-{2,3-bis[(4-tert-butylbenzyl)oxy]phenyl}methylidene)amino]oxy}acetic acid]	58
O=C(O)CO/N=C/c1cccc(OCc2cccc(Cl)c2)c1OCc1cccc(Cl)c1 [Compound 136, {[((1E)-{2,3-bis[(3-chlorobenzyl)oxy]phenyl}methylidene)amino]oxy}acetic acid]	80
O=C(O)CO/N=C/c1cccc(OCc2cccc(Br)c2)c1OCc1cccc(Br)c1 [Compound 137, {[((1E)-{2,3-bis[(3-bromobenzyl)oxy]phenyl}methylidene)amino]oxy}acetic acid]	79
Cc1cccc(COc2cccc(/C=N/OCC(=O)O)c2OCc2cccc(C)c2)c1 [Compound 138, {[((1E)-{2,3-bis[(3-methylbenzyl)oxy]phenyl}methylidene)amino]oxy}acetic acid]	88
O=C(O)CO/N=C/c1cccc(OCc2cccc(C(F)(F)F)c2)c1OCc1cccc(C(F)(F)F)c1 [Compound 139, ({[(1E)-(2,3-bis{[3-(trifluoromethyl)benzyl]oxy}phenyl)methylidene]amino}oxy)acetic acid]	90
Cc1ccc(COc2cccc(/C=N/OCC(=O)O)c2OCc2ccc(C)cc2)cc1 [Compound 140, {[((1E)-{2,3-bis[(4-methylbenzyl)oxy]phenyl}methylidene)amino]oxy}acetic acid]	94
O=C(O)CO/N=C/c1cccc(OCc2ccc(F)c(F)c2)c1OCc1ccc(F)c(F)c1 [Compound 141, {[((1E)-{2,3-bis[(3,4-difluorobenzyl)oxy]phenyl}methylidene)amino]oxy}acetic acid]	48
O=C(O)CO/N=C/c1cc(OCc2cccc(Cl)c2)cc(OCc2cccc(Cl)c2)c1 [Compound 142, {[((1E)-{3,5-bis[(3-chlorobenzyl)oxy]phenyl}methylidene)amino]oxy}acetic acid]	86
O=C(O)CO/N=C/c1cc(OCc2ccc(F)cc2)cc(OCc2ccc(F)cc2)c1 [Compound 143, {[((1E)-{3,5-bis[(4-fluorobenzyl)oxy]phenyl}methylidene)amino]oxy}acetic acid]	95
O=C(O)CO/N=C/c1cc(OCc2ccc(C(F)(F)F)cc2)cc(OCc2ccc(C(F)(F)F)cc2)c1 [Compound 144, ({[(1E)-(3,5-bis{[4-(trifluoromethyl)benzyl]oxy}phenyl)methylidene]amino}oxy)acetic acid]	93
O=C(O)CO/N=C/c1cc(OCc2ccc(Br)cc2)cc(OCc2ccc(Br)cc2)c1 [Compound 145, {[((1E)-{3,5-bis[(4-bromobenzyl)oxy]phenyl}methylidene)amino]oxy}acetic acid]	100
CC(C)(C)c1ccc(COc2cc(/C=N/OCC(=O)O)cc(OCc3ccc(C(C)(C)C)cc3)c2)cc1 [Compound 146, {[((1E)-{3,5-bis[(4-tert-butylbenzyl)oxy]phenyl}methylidene)amino]oxy}acetic acid]	49
O=C(O)CO/N=C/c1cc(OCc2cccc(Br)c2)cc(OCc2cccc(Br)c2)c1 [Compound 147, {[((1E)-{3,5-bis[(3-bromobenzyl)oxy]phenyl}methylidene)amino]oxy}acetic acid]	87

Other lines, results leading:

inhibition at 100 µM [%]	Structure (SMILES)
88	Cc1cccc(COc2cc(/C=N/OCC(=O)O)cc(OCc3cccc(C)c3)c2)c1 [Compound 148, {[((1E)-{3,5-bis[(3-methylbenzyl)oxy]phenyl}methylidene)amino]oxy}acetic acid]
91	O=C(O)CO/N=C/c1cc(OCc2cccc(C(F)(F)F)c2)cc(OCc2cccc(C(F)(F)F)c2)c1 [Compound 149, ({[(1E)-(3,5-bis{[3-(trifluoromethyl)benzyl]oxy}phenyl)methylidene]amino}oxy)acetic acid]
90	Cc1ccc(COc2cc(/C=N/OCC(=O)O)cc(OCc3ccc(C)cc3)c2)cc1 [Compound 150, {[((1E)-{3,5-bis[(4-methylbenzyl)oxy]phenyl}methylidene)amino]oxy}acetic acid]
88	O=C(O)CO/N=C/c1cc(OCc2ccc(F)c(F)c2)cc(OCc2ccc(F)c(F)c2)c1 [Compound 151, {[((1E)-{3,5-bis[(3,4-difluorobenzyl)oxy]phenyl}methylidene)amino]oxy}acetic acid]
100	O=C(O)CO/N=C/c1cc(OCc2cccc(C(F)(F)F)c2)ccc1OCc1cccc(C(F)(F)F)c1 [Compound 152, ({[(1E)-(2,5-bis{[3-(trifluoromethyl)benzyl]oxy}phenyl)methylidene]amino}oxy)acetic acid]
96	O=C(O)CO/N=C/c1cc(OCc2ccc(F)cc2)ccc1OCc1ccc(F)cc1 [Compound 153, {[((1E)-{2,5-bis[(4-fluorobenzyl)oxy]phenyl}methylidene)amino]oxy}acetic acid]
91	O=C(O)CO/N=C/c1cc(OCc2ccc(C(F)(F)F)cc2)ccc1OCc1ccc(C(F)(F)F)cc1 [Compound 154, ({[(1E)-(2,5-bis{[4-(trifluoromethyl)benzyl]oxy}phenyl)methylidene]amino}oxy)acetic acid]
85	O=C(O)CO/N=C/c1cc(OCc2ccc(Br)cc2)ccc1OCc1ccc(Br)cc1 [Compound 155, {[((1E)-{2,5-bis[(4-bromobenzyl)oxy]phenyl}methylidene)amino]oxy}acetic acid]
99	CC(C)(C)c1ccc(COc2ccc(OCc3ccc(C(C)(C)C)cc3)c(/C=N/OCC(=O)O)c2)cc1 [Compound 156, {[((1E)-{2,5-bis[(4-tert-butylbenzyl)oxy]phenyl}methylidene)amino]oxy}acetic acid]
85	O=C(O)CO/N=C/c1cc(OCc2cccc(Cl)c2)ccc1OCc1cccc(Cl)c1 [Compound 157, {[((1E)-{2,5-bis[(3-chlorobenzyl)oxy]phenyl}methylidene)amino]oxy}acetic acid]
69	O=C(O)CO/N=C/c1cc(OCc2cccc(Br)c2)ccc1OCc1cccc(Br)c1 [Compound 158, {[((1E)-{2,5-bis[(3-bromobenzyl)oxy]phenyl}methylidene)amino]oxy}acetic acid]
69	Cc1cccc(COc2ccc(OCc3cccc(C)c3)c(/C=N/OCC(=O)O)c2)c1 [Compound 159, {[((1E)-{2,5-bis[(3-methylbenzyl)oxy]phenyl}methylidene)amino]oxy}acetic acid]
76	Cc1ccc(COc2ccc(OCc3ccc(C)cc3)c(/C=N/OCC(=O)O)c2)cc1 [Compound 160, {[((1E)-{2,5-bis[(4-methylbenzyl)oxy]phenyl}methylidene)amino]oxy}acetic acid]
